# Results reported in US20250360161A1, “CHEMICALLY MODIFIED HEPARIN” (IHP Therapeutics Inc., priority 2022, published 2025).
# Assays:
# [1] = tested on: BxPC3 human pancreatic cancer cells; experiment: Pancreatic cancer BxPC3 subcutaneous model, tumor volume; assay type: in vivo, nude mice; details: day 70; gemcitabine 100 mg/kg i.p. q3 day; Compounds A, B 5 mg/kg s.c. bid, 10 mg/kg from day 56
# Description: A study was conducted to evaluate the anti-cancer activity of Compound A and Compound B in a mouse model of pancreatic cancer. Human pancreatic cancer cells, BxPC3, were implanted subcutaneously (1×10^6 cells in 100 μL Matrigel) in 6 week old female nude mice (5 mice per group). Treatment began on day 7 after implantation, with either gemcitabine (100 mg/kg i.p. q3 day), Compound A (5 mg/kg s.c. bid), or Compound B (5 mg/kg s.c. bid). Tumor volume was measured with calipers each week. On day 56 the dose of both Compound A and B were increased to 10 mg/kg s.c. bid. At day 70 animals were sacrificed and tumors resected, fixed, and stored for further testing.
# P-selectin = experiment: P-selectin-mediated HL-60 cell binding to immobilized P-selectin/Fc chimera; assay type: cell-based; details: HL-60 cells, best-fit values
# Description: 96 well plates were coated with 10 μg/mL Protein A overnight, then blocked with 2% FBS for 1 hour. 2 μg/mL P-selectin/Fc chimera was bound to the Protein A for 3 hours at 4° C. HL-60 cells (2e5 cells/well, CMFDA labeled) were then layered onto the P-selectin and allowed to bind for 1 hour at room temperature. Wells were treated concurrently with test samples to determine inhibitory binding activity. After 1 hour, unbound cells were washed and bound cells lysed in a 1% Triton-X solution and read on a Fluorimeter at 480/520 nm.
P-sel IC50 (P-selectin) [µg/mL],Compound,reduction of tumor volume [1]
,"Nc1ccn([C@@H]2O[C@H](CO)[C@@H](O)C2(F)F)c(=O)n1 [Gemcitabine, gemcitabine]",approximately 58%
64.72,enoxaparin,
